“And” between values parts separate entries of the source, which are not always exact repeats. Equal entries are not always repeated.
Columns and labels:
[1] = system: HL60 (human leukemia cell line); test: MTT assay, in vitro antitumor effect; assay type: cell-based; details: HL60, 96 hours incubation, average±error range of triple culture tests, read-out: amount of compound 1 required to achieve IC50
Text: (§1) (2) Verification of In Vitro Antitumor Effects on Various Human Cancer Cell Lines According to the MTT Assay Method.
(§2) Each single cell of a human non-small-cell lung cancer cell line PC-14, a human non-small-cell lung cancer cell line SBC-3, a human […] cell line MCF-7, a human non-small-cell ovarian cancer cell line SKOV3, a human leukemia cell line HL60 and a human colon cancer cell line WiDR was obtained by trypsinization or by using a cell scraper in RPMI 1640 medium to prepare a suspension containing 100 cells per 15 μl. The compound 1 as an anticancer agent was dissolved in dimethylsulfoxide and then the solution was added to the suspension to make the concentration of the compound fall within a range between 0.5 and 1 μM, and the resulting suspension was poured into a 96-perforated plate at 150 μl/well. This plate was maintained at a temperature of 37° C. under 5% of carbon dioxide and saturated vapor for 96 hours to incubate the suspension. After incubation, the incubated suspension was combined with 20 μl of MTT (3-(4,5-dimethylthiazol-2-yl)-2,5-diphenyltetrazoliumbromide) reagent dissolved in D-PBS (−) at a concentration of 5 mg/ml, and was further incubated at 37° C. for 4 hours. After the completion of incubation, the entire plate was centrifuged to discharge supernatant. Then, 200 μl of dimethyl sulfoxide was added to dissolve purple formazan which is created from yellow MTT by the action of dehydrogenase lying in mitochondria in the cancer cell, and the amount of the created formazan was determined by reading the absorbance at a wave length ranging from 562 to 630 nm with a multi-plate reader. Given that the average growth rate of a negative control is […] and the average growth rate of a positive control is 100%, a tumor-volume growth curve was plotted, and the concentration of compound 1 required for 50% of human cancer-cell proliferation suppression was calculated.
(§3) The values in Table 1 indicate each value of the concentration required for 50% of human cancer-cell proliferation suppression from the MTT assay in triple culture tests of independent cancer cells using compound 1 by average±error range (μM).

[2] = system: MCF-7 (human mammary cancer cell line); test: MTT assay, in vitro antitumor effect; assay type: cell-based; details: MCF-7, 96 hours incubation, average±error range of triple culture tests, read-out: amount of compound 1 required to achieve IC50
Text: as §1, §2, §3

[3] = system: SBC-3 (human small-cell lung cancer cell line); test: MTT assay, in vitro antitumor effect; assay type: cell-based; details: SBC-3, 96 hours incubation, average±error range of triple culture tests, read-out: amount of compound 1 required to achieve IC50
Text: as §1, §2, §3

[4] = system: SKOV3 (human ovarian cancer cell line); test: MTT assay, in vitro antitumor effect; assay type: cell-based; details: SKOV3, 96 hours incubation, average±error range of triple culture tests, read-out: amount of compound 1 required to achieve IC50
Text: as §1, §2, §3

[5] = system: WiDR (human colon cancer cell line); test: MTT assay, in vitro antitumor effect; assay type: cell-based; details: 96 hours incubation, average±error range of triple culture tests, read-out: amount of compound 1 required to achieve IC50
Text: as §1, §2, §3

[6] = system: human non-small-cell lung cancer cell line PC-14; test: MTT assay, in vitro antitumor effect; assay type: cell-based; details: PC-14, 96 hours incubation, average±error range of triple culture tests, read-out: amount of compound 1 required to achieve IC50
Text: as §1, §2, §3

[7] = system: fibroblasts NIH3T3; test: Fibroblast cell-proliferation suppression (cell count); assay type: cell-based; details: NIH3T3, 1×10^−6 M and 3×10^−6 M, cell number every 24 hours, FIG. 1
Procedure: FIG. 1 is a graph showing a cell-proliferation suppressing action against fibroblast of the compound represented by the above general formula [1] and the like shown in Example 2.
Nine plates were prepared for each of control and compound 1 groups each having a concentration of 1×10^−6 M and a compound 1 group having a concentration of 3×10^−6 M (total of 27 plates). The number 4.4×10^5 of fibroblasts NIH3T3 were added to each of the 27 plates, and D-MEM culture solution added with 10% FBS (fetal bovine serum) was added thereto. Each of the controls was incubated with added water corresponding to the added amount of compound 1. The number of cells in 3 plates of each of the groups was measured every 24 hours, and the measured numbers were averaged to provide an average cell number per plate.

[8] = system: human non-small-cell lung cancer cell line PC-14; test: PC-14 subcutaneous implant in nude mice, tumor volume; assay type: in vivo, female nude mice BALB/c nu/nu; design: key: relative tumor volume, 1st day = 100; volume = minor axis^2 × major axis; details: 1st day = 100
[9] = Entire body state and weight of tumor-bearing nude mice; assay type: in vivo, female nude mice BALB/c nu/nu; details: 3 and 5 mg/kg by tail injection, once a day on 7th, 8th, 10th, 11th days after implantation
Procedure: For six subjects of the group number 1, the compound 1 was administered by injecting from each tail of the nude mice on each of the 7th, 8th, 10th and 11th days after the implantation, at 3 mg of the compound 1 per kg of weight once a day. For six subjects of the group number 2, the compound 1 was administered by injecting from each tail of the nude mice on each of the 7th, 8th, 10th and 11th days after the implantation, at 5 mg of the compound 1 per kg of weight once a day. The subjects of the group number […] to be the controls were a group having no administration of the compound 1, and neither administration nor treatment of the compound 1 was performed on the controls. […] However, in the result of each tumor volume of the mice, a specific difference was found between the subjects of the group numbers 1 to 3. The measurement of the tumor volumes is shown in the following Table 2, and the average of the tumor volumes in each of the groups is shown in Table 3. In Tables 2 and 3, each size of the tumor volumes after the 2nd day is represented on condition that the size of the tumor volume on the 1st day is 100.

[10] = system: various cancers; test: Overall carcinostatic effect, results of examples 1 to 3; details: overall statement

For `OC(CN1CCN(C(c2ccccc2)c2ccccc2)CC1)CN1CCC(O)(c2ccc(Cl)cc2)CC1` (stereo not shown) [compound 1, 1-[1-4-(diphenylmethyl)piperazinyl]-3-[1-{4-(4-chlorophenyl)-4-hydroxy}piperidinyl]-2-propanol], the IC50 [1] was 1180 ± 50 nM, the IC50 [2] was 600 ± 80 nM and the IC50 [3] was 460 ± 30 nM. It also gave an IC50 [4] of 850 ± 20 nM, an IC50 [5] of 410 ± 30 nM and an IC50 [6] of 1020 ± 200 nM. For the same compound, the “cell-proliferation suppressing action against fibroblast” value [7] was “effectiveness to proliferative lesions”, the “tumor volume, average (6 mice)” value ([8]; group No. 2 (3 mg/kg tail injection), 2 day) was 89.79 and the “tumor volume, individual mice” value ([8]; group No. 2 (3 mg/kg tail injection), 2 day, 3 mg/kg) was 45.35 and 120.51 and 139.67 and 73.21 and 73.29 and 66.68. The “tumor volume, average (6 mice)” value ([8]; group No. 2 (3 mg/kg tail injection), 3 day) was 67.01, the “tumor volume, individual mice” value ([8]; group No. 2 (3 mg/kg tail injection), 3 day, 3 mg/kg) was 20.22 and 98.14 and 85.27 and 52.91 and 62.47 and 83.06 and the “tumor volume, average (6 mice)” value ([8]; group No. 2 (3 mg/kg tail injection), 4 day) was 68.38. The “tumor volume, individual mice” value ([8]; group No. 2 (3 mg/kg tail injection), 4 day, 3 mg/kg) was 46.17 and 80.18 and 105.01 and 42.19 and 31.02 and 85.73, the “tumor volume, average (6 mice)” value ([8]; group No. 2 (3 mg/kg tail injection), 5 day) was 46.68 and the “tumor volume, individual mice” value ([8]; group No. 2 (3 mg/kg tail injection), 5 day, 3 mg/kg) was 31.44 and 66.58 and 67.76 and 22.55 and 18.55 and 51.09. The “tumor volume, average (6 mice)” value ([8]; group No. 2 (3 mg/kg tail injection), 6 day) was 47.73, the “tumor volume, individual mice” value ([8]; group No. 2 (3 mg/kg tail injection), 6 day, 3 mg/kg) was 30.93 and 122.90 and 55.16 and 0.00 and 10.11 and 51.30 and the “tumor volume, average (6 mice)” value ([8]; group No. 2 (3 mg/kg tail injection), 7 day) was 42.99. For the same compound, the “tumor volume, individual mice” value ([8]; group No. 2 (3 mg/kg tail injection), 7 day, 3 mg/kg) was 52.68 and 99.04 and 75.58 and 0.00 and 12.98 and 47.68, the “tumor volume, average (6 mice)” value ([8]; group No. 2 (3 mg/kg tail injection), 8 day) was 58.33 and the “tumor volume, individual mice” value ([8]; group No. 2 (3 mg/kg tail injection), 8 day, 3 mg/kg) was 56.49 and 127.45 and 130.56 and 0.00 and 4.97 and 30.49. For the same compound, the “tumor volume, average (6 mice)” value ([8]; group No. 3 (5 mg/kg tail injection), 2 day) was 78.63, the “tumor volume, individual mice” value ([8]; group No. 3 (5 mg/kg tail injection), 2 day, 5 mg/kg) was 55.40 and 63.47 and 93.53 and 68.25 and 90.42 and 80.68 and the “tumor volume, average (6 mice)” value ([8]; group No. 3 (5 mg/kg tail injection), 3 day) was 75.11. The “tumor volume, individual mice” value ([8]; group No. 3 (5 mg/kg tail injection), 3 day, 5 mg/kg) was 58.27 and 43.51 and 72.22 and 113.73 and 70.23 and 92.68, the “tumor volume, average (6 mice)” value ([8]; group No. 3 (5 mg/kg tail injection), 4 day) was 74.99 and the “tumor volume, individual mice” value ([8]; group No. 3 (5 mg/kg tail injection), 4 day, 5 mg/kg) was 79.34 and 40.73 and 83.65 and 123.79 and 36.86 and 84.55. For the same compound, the “tumor volume, average (6 mice)” value ([8]; group No. 3 (5 mg/kg tail injection), 5 day) was 60.45, the “tumor volume, individual mice” value ([8]; group No. 3 (5 mg/kg tail injection), 5 day, 5 mg/kg) was 47.44 and 40.65 and 62.95 and 103.32 and 28.95 and 79.20 and the “tumor volume, average (6 mice)” value ([8]; group No. 3 (5 mg/kg tail injection), 6 day) was 53.82. The “tumor volume, individual mice” value ([8]; group No. 3 (5 mg/kg tail injection), 6 day, 5 mg/kg) was 33.96 and 32.21 and 54.93 and 135.18 and 14.65 and 51.96, the “tumor volume, average (6 mice)” value ([8]; group No. 3 (5 mg/kg tail injection), 7 day) was 64.86 and the “tumor volume, individual mice” value ([8]; group No. 3 (5 mg/kg tail injection), 7 day, 5 mg/kg) was 34.07 and 36.27 and 86.76 and 129.59 and 17.36 and 85.12. For the same compound, the “tumor volume, average (6 mice)” value ([8]; group No. 3 (5 mg/kg tail injection), 8 day) was 62.63, the “tumor volume, individual mice” value ([8]; group No. 3 (5 mg/kg tail injection), 8 day, 5 mg/kg) was 47.99 and 15.80 and 102.87 and 140.33 and 7.22 and 61.54 and the “entire body state and weight of the mice versus control” value [9] was “substantially no difference”. For the same compound, the “carcinostatic effect (results of examples 1 to 3)” value [10] was “high carcinostatic effect”.
